Read-outs that look alike come from different tables or passages of the source.
Legend:
[1] = biological target: T1, α-glucosidase (Saccharomyces cerevisiae, UniProt P53341); experiment: α-Glucosidase inhibitory assay (pNPG hydrolysis); format: biochemical; conditions: for inhibition at 100 µM: read-out: α-Glucosidase Inhibition (%)
T1 construct: purchased Sigma-Aldrich Inc
Protocol: In brief, 140 μL of phosphate buffer (0.2 M, pH 6.8) was added to the 96-well microplate wells, followed by the addition of 10 μL α-glucosidase solution (0.5 U/mL, Sigma-Aldrich Inc., Saint Louis, MO, USA) and 2 μL of the test compound. The control wells contained 2 μL of DMSO in place of the test sample, while the enzyme solution was replaced by an additional 10 μL of phosphate buffer in the background wells. After preincubation at 37 °C for 10 min, 48 μL of 2 mM p-nitrophenyl-α-D-glucopyranoside (pNPG) was introduced into each well. The reaction mixtures were incubated for 30 min before being terminated by adding 50 μL of 0.1 M Na2CO3 solution. Absorbance was measured at 405 nm using a microplate reader. […] All assays were performed in triplicate and repeated three times independently.

[2] = biological target: T2, PTP1B (Homo sapiens, UniProt P18031); experiment: PTP1B inhibitory assay (pNPP hydrolysis); format: biochemical; conditions: for IC50: mean ± SD of three independent experiments; for inhibition at 100 µM: percent inhibition at a concentration of 100 μM
T2 construct: purchased MedChemExpress LLC
T2 sequence (P18031 1-435): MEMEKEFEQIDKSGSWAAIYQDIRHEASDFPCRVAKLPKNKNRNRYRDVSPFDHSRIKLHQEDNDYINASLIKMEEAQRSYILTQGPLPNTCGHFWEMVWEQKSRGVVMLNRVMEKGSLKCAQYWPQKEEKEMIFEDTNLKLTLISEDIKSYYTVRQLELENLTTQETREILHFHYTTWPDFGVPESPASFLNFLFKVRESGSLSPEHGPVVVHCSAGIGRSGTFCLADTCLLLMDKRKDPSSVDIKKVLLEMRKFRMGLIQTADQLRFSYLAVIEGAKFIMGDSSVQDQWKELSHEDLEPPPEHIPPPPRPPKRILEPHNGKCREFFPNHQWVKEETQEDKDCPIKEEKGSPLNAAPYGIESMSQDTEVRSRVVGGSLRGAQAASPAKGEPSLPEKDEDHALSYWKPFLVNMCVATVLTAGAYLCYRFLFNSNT
Protocol: The inhibitory activity against PTP1B was assessed via the p-nitrophenyl phosphate (pNPP) hydrolysis assay. The reaction buffer consisted of 50 mM citrate buffer (pH 6.0) supplemented with 0.1 M NaCl, 2 mM EDTA, and 1 mM DTT. Recombinant PTP1B enzyme (MedChemExpress LLC, Monmouth Junction, NJ, USA) was used at a concentration of 5 μg/mL, with 10 mM pNPP serving as the substrate. The enzymatic reaction was terminated by the addition of 1M NaOH.

[3] = biological target: α-glucosidase; conditions: cited from earlier work; for α-Glucosidase inhibition (in words): affinity-directed fractionation-mass spectrometry
[4] = biological target: T2, PTP1B; experiment: Enzyme reversibility and kinetics analysis, PTP1B; format: biochemical
Protocol: (§1) Reversibility was assessed by plotting the enzyme reaction velocity (v) against varying enzyme concentrations in the presence of different inhibitor concentrations. Lineweaver–Burk plots (1/v vs. 1/[S]) were constructed by measuring reaction velocities at multiple substrate concentrations with varying amounts of inhibitors. From these plots, inhibition type, as well as Michaelis–Menten constants Km and Vmax, were determined. Additionally, slopes and Y-intercepts of these reciprocal plots were also plotted against inhibitor concentrations to further characterize the inhibition constants Ki and Kis, respectively.

[5] = biological target: T1, α-glucosidase; experiment: Enzyme reversibility and kinetics analysis, α-glucosidase; format: biochemical
Protocol: as §1

[6] = read-out: α-Glucosidase IC50, mean ± SD of three independent experiments
[7] = secondary plot of Y-intercept from Lineweaver–Burk data
[8] = velocity vs enzyme concentration at different inhibitor levels

T1 sequence (P53341 whole entry): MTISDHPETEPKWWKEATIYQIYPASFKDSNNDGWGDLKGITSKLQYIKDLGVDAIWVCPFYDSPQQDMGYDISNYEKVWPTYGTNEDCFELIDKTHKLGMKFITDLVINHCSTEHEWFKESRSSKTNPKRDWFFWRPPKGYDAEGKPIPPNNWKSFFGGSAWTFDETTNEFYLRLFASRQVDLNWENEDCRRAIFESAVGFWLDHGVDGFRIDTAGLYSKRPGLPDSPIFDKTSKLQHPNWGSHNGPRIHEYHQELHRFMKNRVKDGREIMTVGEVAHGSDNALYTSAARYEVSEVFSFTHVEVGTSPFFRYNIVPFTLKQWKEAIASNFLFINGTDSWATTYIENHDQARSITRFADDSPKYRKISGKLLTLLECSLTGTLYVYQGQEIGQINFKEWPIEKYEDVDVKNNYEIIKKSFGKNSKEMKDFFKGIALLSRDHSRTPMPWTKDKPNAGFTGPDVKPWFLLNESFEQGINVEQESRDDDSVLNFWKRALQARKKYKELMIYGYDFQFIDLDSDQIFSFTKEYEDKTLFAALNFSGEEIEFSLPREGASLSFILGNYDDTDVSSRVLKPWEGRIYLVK

Compound | IC50 [1, 6] [µM] | inhibition at 100 µM [1] [%] | IC50 [2] [µM] | inhibition at 100 µM [2] [%] | other results
CCCC[C@@H](CCCCCCCCCC(=O)OC)O[C@@H]1O[C@H](C)[C@H](O)[C@H](O)[C@H]1O[C@@H]1O[C@H](CO)[C@@H](O)[C@H](O[C@@H]2O[C@H](CO)[C@@H](O)[C@H](O)[C@H]2O)[C@H]1O[C@@H]1O[C@@H](C)[C@H](O)[C@@H](O)[C@H]1O [Compound 7, Cusponin VII] | > 100 | 49.4 ± 1.71 | > 100 | 15.9 ± 2.92 | –
CCCC[C@@H](CCCCCCCCCC(=O)OC)O[C@@H]1O[C@H](C)[C@H](O)[C@H](O)[C@H]1O[C@@H]1O[C@H](CO)[C@@H](O)[C@H](O[C@@H]2O[C@H](CO)[C@@H](O)[C@H](O)[C@H]2O)[C@H]1O[C@@H]1O[C@@H](C)[C@H](OC(=O)[C@H](C)[C@@H](C)O)[C@@H](O)[C@H]1O [Compound 6, Cusponin VI] | 71.4 ± 3.23 | 60.5 ± 5.42 | > 100 | 29.9 ± 4.5 | –
operculinic acid A | – | – | – | – | IC50 ([3]; from Ipomoea biflora): 78.3 µM
CCC[C@H]1CCCCCCCCCC(=O)O[C@H]2[C@H](O[C@H]3[C@H](O)[C@@H](C)O[C@@H](O[C@H]4[C@H](O1)O[C@H](C)[C@@H](O)[C@@H]4O)[C@@H]3O[C@@H]1O[C@@H](C)[C@H](OC(C)=O)[C@@H](O)[C@H]1O)O[C@H](C)[C@@H](O)[C@@H]2OC(=O)[C@H](C)[C@@H](C)O [albinoside VII] | – | – | – | – | α-Glucosidase inhibition (in words) [3]: potent α-glucosidase inhibitors
CCC[C@H]1CCCCCCCCCC(=O)O[C@H]2[C@H](OC[C@H]3O[C@@H](O[C@H]4[C@H](O1)O[C@H](C)[C@@H](O)[C@@H]4O)[C@H](O[C@@H]1O[C@@H](C)[C@H](OC(C)=O)[C@@H](O)[C@H]1O)[C@@H](O)[C@@H]3O)O[C@H](C)[C@@H](O)[C@@H]2OC(=O)[C@H](C)[C@@H](C)O [albinoside VI] | – | – | – | – | α-Glucosidase inhibition (in words) [3]: potent α-glucosidase inhibitors
CCCC[C@@H](CCCCCCCCCC(=O)OC)O[C@@H]1O[C@H](CO)[C@@H](O)[C@H](O)[C@H]1O[C@@H]1O[C@@H](C)[C@H](O[C@@H]2O[C@@H](C)[C@H](O[C@@H]3O[C@@H](C)[C@H](O)[C@@H](O[C@@H]4O[C@H](CO)[C@@H](O)[C@H](O)[C@H]4O)[C@H]3O)[C@@H](O)[C@H]2O)[C@@H](O)[C@H]1O [Compound 1, Cusponin I] | 38.2 ± 3.36 | 68.7 ± 4.11 | > 100 | 5.41 ± 0.67 | –
CCCC[C@@H](CCCCCCCCCC(=O)OC)O[C@@H]1O[C@H](CO)[C@@H](O)[C@H](O)[C@H]1O[C@@H]1O[C@@H](C)[C@H](O[C@@H]2O[C@@H](C)[C@H](O[C@@H]3O[C@@H](C)[C@H](O)[C@@H](O)[C@H]3O)[C@@H](O[C@@H]3O[C@H](CO)[C@@H](O)[C@H](O)[C@H]3O)[C@H]2O)[C@@H](O)[C@H]1O [Compound 3, Cusponin III] | 64.9 ± 2.97 | 67.1 ± 1.18 | 14.2 ± 1.29 | 89.2 ± 2.55 | Inhibition type, PTP1B ([4]; Lineweaver–Burk plot): mixed-type; Vmax of PTP1B in presence of inhibitor ([4]; at 25 μM compound 3 (0.104 at 0 μM)): 0.075; Inhibition constant Kis (enzyme–substrate complex), PTP1B [4, 7]: 64.24 µM; Ki ([4]; secondary plot of slope from Lineweaver–Burk data, read-out: Inhibition constant Ki (free enzyme), PTP1B): 24.8 µM; Reversibility of PTP1B inhibition [4, 8]: reversible
CCCCC[C@@H](CCCCCCCCCC(=O)OC)O[C@@H]1O[C@H](CO)[C@@H](O)[C@H](O)[C@H]1O[C@@H]1O[C@@H](C)[C@H](O[C@@H]2O[C@@H](C)[C@H](O[C@@H]3O[C@@H](C)[C@H](O)[C@@H](O[C@@H]4O[C@H](CO)[C@@H](O)[C@H](O)[C@H]4O)[C@H]3O)[C@@H](O)[C@H]2O)[C@@H](O)[C@H]1O [Compound 2, Cusponin II] | – | 83 ± 0.84 | > 100 | 3.26 ± 0.16 | Inhibition type, α-glucosidase ([5]; Lineweaver–Burk plots): uncompetitive; Vmax of α-glucosidase in presence of inhibitor ([5]; at 16 μM compound 2 (0.115 at 0 μM)): 0.021; Inhibition constant Kis (enzyme–substrate complex), α-glucosidase [5, 7]: 3.02 µM; Reversibility of α-glucosidase inhibition [5, 8]: reversible; IC50 [1]: 8.02 ± 2.9 µM
CCCC[C@@H](CCCCCCCCCC(=O)OC)O[C@@H]1O[C@H](C)[C@H](O)[C@H](O)[C@H]1O[C@@H]1O[C@@H](C)[C@H](O[C@@H]2O[C@@H](C)[C@H](O[C@@H]3O[C@@H](C)[C@H](O)[C@@H](O)[C@H]3O)[C@@H](O[C@@H]3O[C@H](CO)[C@@H](O)[C@H](O)[C@H]3O)[C@H]2O)[C@@H](O)[C@H]1O [Compound 4, Cusponin IV] | 55.5 ± 6.89 | 66.5 ± 3.65 | > 100 | 15 ± 2.45 | –
C[C@H]1[C@H](C)CC[C@]2(C(=O)O)CC[C@]3(C)C(=CC[C@@H]4[C@@]5(C)CC[C@H](O)C(C)(C)[C@@H]5CC[C@]43C)[C@H]12 [Ursolic acid, ursolic acid, reference compound] | – | – | – | 90.4 ± 5.23 | –
CCCCC[C@@H](CCCCCCCCCC(=O)OC)O[C@@H]1O[C@H](CO)[C@@H](O)[C@H](O)[C@H]1O[C@@H]1O[C@@H](C)[C@H](O[C@@H]2O[C@@H](C)[C@H](O[C@@H]3O[C@@H](C)[C@H](O)[C@@H](O)[C@H]3O)[C@@H](O[C@@H]3O[C@H](CO)[C@@H](O)[C@H](O)[C@H]3O)[C@H]2O)[C@@H](O)[C@H]1O [Compound 8, operculinic acid B methyl ester] | 65.1 ± 9.41 | 64.6 ± 3.12 | > 100 | 7.78 ± 1.98 | –
CCCC[C@@H](CCCCCCCCCC(=O)OC)O[C@@H]1O[C@H](C)[C@H](O)[C@H](O)[C@H]1O[C@@H]1O[C@H](CO)[C@@H](O)[C@H](O[C@@H]2O[C@H](CO)[C@@H](O)[C@H](O)[C@H]2O)[C@H]1O[C@@H]1O[C@@H](C)[C@H](OC(=O)[C@H](C)[C@@H](C)OC(=O)[C@H](C)[C@@H](C)O)[C@@H](O)[C@H]1O [Compound 5, Cusponin V] | > 100 | 51.8 ± 1.77 | 62.3 ± 8.61 | 52.7 ± 4.6 | –

Reference: publication PMC12562854, “Resin Glycosides with α-Glucosidase and Protein Tyrosine Phosphatase 1B Inhibitory Activities from the Seeds of Cuscuta japonica” (Biomolecules, 2025)
